Columns and labels:
I-BET resistant cells = assay: Clonogenic, apoptosis and cell cycle assays, I-BET resistant cells; format: cell-based, mouse; conditions: FIG. 1D-F
Procedure: (§1) Clonogenic potential was assessed through colony growth of derived cell lines plated in cytokine supplemented methylcellulose (Methocult M3434, Stemcell Technologies). […] Gr1−/CD11b- and Gr1+/CD11b+ fractions of resistant cell lines were plated in duplicate following FACS sorting at a cell dose of between 2×10^2 and 2×10^3 cells per plate. […] Cells were incubated at 37° C. and 5% CO2 for 7 to 10 days at which time colonies were counted.
(§2) Cell apoptosis was assessed using APC conjugated Annexin V (550475, BD Biosciences) and propidium iodide (PI) (P4864, Sigma-Aldrich) staining according to manufacturer's instructions.
(§3) For cell cycle analysis, cells were fixed overnight at −20° C. in 70% EtOH/PBS. Prior to flow cytometry analysis, cells were incubated at 37° C. for 30 minutes in PI staining solution (0.02 mg/mL PI, 0.05% v/v Triton-X in PBS, supplemented with DNase-free RNase A (19101, Qiagen) or incubated at room temperature for 10 minutes with 4′,6-diamidino-2-phenylindole (DAPI) staining solution (1 μg/ml DAPI, 0.05% v/v Triton-X in PBS).

[1] = system: MLL-AF9 AML, parental cell line; assay: Syngeneic transplantation AML model, recipients of the parental cell line, survival; format: in vivo, C57BL/6 mice; conditions: I-BET 20-30 mg/kg IP; P<0.01, n=6, log-rank; FIG. 1H
Procedure: (§4) Serial syngeneic transplantation studies of drug efficacy, generation of in vivo resistance and limit dilution analyses were performed with intravenous injection of between 10 to 2.5×10^6 cells per mouse obtained from bone marrow or spleen.
(§5) Syngeneic transplantation studies were performed in C57BL/6 mice (wild type or expressing Ptprc^a). All mice were 6-10 weeks old at the time of sub-lethal irradiation (300 cGy) and intravenous cell injection. […] Mice were randomly assigned treatment groups; treatment administration was not blinded. Sample sizes were determined according to the resource equation method. Differences in Kaplan-Meier survival curves were analysed using the log-rank statistic.

[2] = system: human AML patient derived xenograft; assay: Patient derived xenograft (PDX) model of AML; format: in vivo, NOD SCID gamma (NSG) mice; conditions: I-BET 10 mg/kg for 2 weeks; FIG. 2G
Text: Immunophenotype assessment for markers of committed differentiation was undertaken through staining with Alexa Fluor 700 anti-Gr-1 (108422, BioLegend) and Brilliant Violet 605 anti-CD11b (101237, BioLegend). Assessment of L-GMP populations was undertaken through staining with eFluor 660 anti-CD34 (50-0341-82, eBioscience), biotin lineage antibody cocktail (120-001-547, Miltenyi Biotec), PerCP/Cy5.5 anti-CD16/32 (101324, BioLegend), APC/Cy7 anti-CD117 (105826, BioLegend) and Pacific Blue anti-Ly-6A (122520, BioLegend) followed by secondary staining with V500 streptavidin (561419, BD Biosciences). Assessment of leukemic LMPP and GMP populations in patient derived xenografts was undertaken through staining with APC/Cy7 anti-mouse CD45.1 (110716, Biolegend), eFluor 450 anti-mouse Ter119 (48-5921-82, eBioscience), FITC anti-human CD45 (11-9459-42, eBioscience), BV711 anti-human CD38 (563965, BD Biosciences), PE anti-human CD90 (561970, BD Biosciences), PE-Cy5 anti-human CD123 (15-1239-41, eBioscience), PerCP-Cy5.5 anti-human CD45RA (45-0458-42), biotin anti-human CD3 (555338, BD Biosciences), biotin anti-human CD19 (555411, BD Biosciences), PE-Cy7 anti-human CD33 (333946, BD Biosciences) and APC anti-human CD34 (555824, BD Biosciences) followed by secondary staining with V500 streptavidin (561419, BD Biosciences). […]

[3] = system: vehicle treated cells / I-BET naive bulk leukaemia cells; assay: Clonogenic, apoptosis and cell cycle assays, vehicle treated (I-BET naive) cells; format: cell-based, mouse
Procedure: as §1, §2, §3

[4] = system: L-GMPs from I-BET naive mice; assay: Clonogenic assay of sorted I-BET naive L-GMPs; format: cell-based, mouse; conditions: 1 μM I-BET; FIG. 2H
Procedure: as §1
Immunophenotype assessment for markers of committed differentiation was undertaken through staining with Alexa Fluor 700 anti-Gr-1 (108422, BioLegend) and Brilliant Violet 605 anti-CD11b (101237, BioLegend). Assessment of L-GMP populations was undertaken through staining with eFluor 660 anti-CD34 (50-0341-82, eBioscience), biotin lineage antibody cocktail (120-001-547, Miltenyi Biotec), PerCP/Cy5.5 anti-CD16/32 (101324, BioLegend), APC/Cy7 anti-CD117 (105826, BioLegend) and Pacific Blue anti-Ly-6A (122520, BioLegend) followed by secondary staining with V500 streptavidin (561419, BD Biosciences). […]

[5] = system: Murine HSPCs transduced with MLL-AF9; assay: Selection of MLL-AF9 transduced HSPCs in cytokine-supplemented methylcellulose with I-BET (IC40); format: cell-based, mouse
Text: Initial generation of immortalised parental cell lines was achieved through magnetic bead selection (Miltenyi Biotec) of c-kit positive cells, obtained from whole bone marrow of male and female C57BL/6 mice, and subsequent retroviral transduction with either an MSCV-MLL-AF9-IRES-YFP or an MSCV-MLL-ENL construct.
Individual vehicle-treated or resistant colonies were picked and transferred to liquid culture to generate clonal cell lines. […] Vehicle-treated clones were also continuously maintained in 0.1% DMSO and passaged in identical fashion. The parental cell line was continuously maintained with no exposure to vehicle or drug.

[6] = system: MLL-AF9 AML, I-BET resistant cell line; assay: Syngeneic transplantation AML model, recipients of resistant cells, survival; format: in vivo, C57BL/6 mice; conditions: identical treatment strategy; P=0.877, n=6, log-rank; FIG. 1I
Procedure: as §4, §5

I-BET resistant clones = assay: Cell growth of I-BET resistant clones under JQ1; format: cell-based, mouse; conditions: 100 nM JQ1; FIG. 1C
Procedure: Following 72 hour incubation, resazurin was added to each well and plates were further incubated for 3 hours. Fluorescence was then read at 560 nm/590 nm on a Cytation 3 Imaging Reader (BioTek). Cell counts were performed using a haemocytometer. Determination of in vitro synergy in proliferation assays was undertaken according to the method of Zhao et al. (2014, Journal of molecular screening, 19: 817-821).

SMILES	I-BET mediated suppression of clonogenic capacity, induction of apoptosis and cell cycle arrest (I-BET resistant cells)	survival [1]	effect on leukemic LMPP population (hCD45 expression) [2]	clonogenic potential ([3]; 1 μM I-BET, I-BET naive bulk leukaemia cells, FIG. 1D)	I-BET mediated suppression of clonogenic capacity, induction of apoptosis and cell cycle arrest ([3]; vehicle treated cells, FIG. 1D-F)	L-GMPs able to survive in clonogenic assay [4]	IC40 [5] [nM]	survival [6]	resistance of I-BET resistant clones to JQ1 (I-BET resistant clones)
COc1cc2c(cc1-c1c(C)noc1C)ncc1[nH]c(=O)n([C@H](C)c3ccccn3)c12 [I-BET, I-BET 151]	impervious	significant survival advantage	enriches for the leukemic LMPP population	virtually eradicates	exquisitely sensitive	30-40%	400	survival advantage is abrogated	
Cc1sc2c(c1C)C(c1ccc(Cl)cc1)=N[C@@H](CC(=O)OC(C)(C)C)c1nnc(C)n1-2 [JQ1]									cross-resistance

— patent US9896663B2, “Leukaemia stem cell line, its method of production and uses thereof” (Peter MacCallum Cancer Institute, priority 2016, dated 2018)
